Legend:
[1] = clinical; settings: for AUC(0-t): both, human, plasma, intravenous, propofol Mean AUClast
Method: A study is conducted for Compound A. The study is a 3-period, randomized, placebo-controlled, double-blind, crossover study in healthy subjects. The primary objective of the study was to determine the safety and tolerability of Compound A in healthy participants after low and high doses of Compound A under hypoxic and hypercapnic conditions in conjunction with low and high doses of propofol. Another primary objective of the study was to determine the ventilatory response of low and high doses of Compound A under hypoxic and hypercapnic conditions in conjunction with low and high doses of propofol. A secondary objective of the study was to determine the cardiovascular response of low and high doses of Compound A during hypoxic and hypercapnic conditions in conjunction with low and high doses of propofol. Another secondary objective of the study was to evaluate the ventilatory response after administration of Compound A and propofol, under different ventilatory conditions: hypoxia and hyperoxic exposure at normocapnia followed by the same sequence at hypercapnia. The study was conducted in conformance with Good Clinical Practice. The study was a randomized, double-blinded, placebo-controlled, three-way crossover study to assess the safety, tolerability, respiratory PD, and PK of Compound A in healthy male and female participants. Subjects were initially screened up to 6 weeks prior to randomization. Following successful initial medical screening, they were scheduled for the study and receive a randomization number. Subjects underwent 3 separate treatment periods. In each of these periods, low or high doses of Compound A or placebo were continuously perfused throughout for a period of 270 minutes. During each period, subjects received different intravenous propofol dosages or placebo in set order: placebo—propofol low dose—propofol high dose. Each treatment session of propofol or placebo is […]. During each propofol treatment session, different ventilatory conditions are applied, hypoxia and hypercapnia (FIG. 1). […] Each assessment period (i.e., “run”) consists of a hypoxia/hyperoxic exposure at normocapnia followed by one the same sequence at hypercapnia. […] The participants received the following treatments in random order during the dosing periods: • Placebo+placebo/propofol low/propofol high/ • Compound A low+placebo/propofol low/propofol high • Compound A high+placebo/propofol low/propofol high Subjects were admitted to study site on Day −1 for pre-dose activities and eligibility was reassessed and stayed overnight. On each dosing day (Day 1), subjects were transferred to a special unit at study site in the morning (or early afternoon) after a minimum 8 hour overnight fasting. After placement of the respiratory and cardiovascular monitoring/assessment devices including an arterial line, subjects assumed the semi-recumbent position and sufficient time was allowed for subjects to resume a normal breathing pattern. After completion of baseline evaluations, all measurements were performed as per the schedule of assessments. Upon completion of all measurements on the dosing day, subjects were monitored overnight and assessed the next morning (at least 12 hours post study treatments) prior to discharge (Day 2). Subjects were not immediately discharged in cases where prolonged care is required (e.g., due to adverse event, residual sedation etc.) and were treated as necessary. Duration of Treatment: Participation was approximately 10 weeks divided as follows: • Screening: Up to 42 days before first dosing • Treatment phase of approximately 21 days, including three treatment and study assessment periods of 3 days each with approximately 7 days (minimum of 3) between dosing days • Follow up 7 days after last dosing Healthy adult subjects were selected for the study.

[2] = system: healthy participants; settings: propofol during placebo infusion
[3] = during infusion with Compound A high dose
[4] = during infusion with Compound A low dose

Structure (SMILES): CC(C)c1cccc(C(C)C)c1O [propofol]
- AUC(0-t) [1, 3]: 6150 ± 1170 ng·h/mL
- AUC(0-t) [1, 4]: 5750 ± 1180 ng·h/mL
- AUC(0-t) ([1]; during infusion with placebo): 4600 ± 548 ng·h/mL
- propofol peak plasma concentration, mean (±SD) [1, 3]: 2620.0 ± 1093.86 ng/mL
- propofol peak plasma concentration, mean (±SD) [1, 4]: 2534.2 ± 1192.34 ng/mL
- propofol peak plasma concentration, mean (±SD) ([1]; during infusion with placebo): 1880.8 ± 265.45 ng/mL
- Propofol plasma concentrations during infusion with Compound A compared to placebo infusion ([1]; in vivo): tended to be higher during infusion with Compound A
- Propofol plasma concentrations versus targeted concentration ([1]; propofol high dose infusion, target 1200 ng/mL): exceeding those targeted
- propofol Geometric mean Cav200-270 min ([1]; propofol high dose interval, range across treatments): 1525.12 to 1862.45 ng/mL
- propofol Geometric mean Cav115-185 min ([1]; propofol low dose interval, range across treatments): 452.62 to 559.80 ng/mL
- Effect of propofol on hypoxic sensitivity [2]: decreased hypoxic sensitivity

From patent US12138267B2, “Methods of treating respiratory depression modulated by a non-opioid agent” (Enalare Therapeutics Inc., priority 2021, dated 2024)
